Molecules are shown by their SMILES. Entries after “also recorded” stand apart in the source; their conditions may differ. Where two headings read alike, the source gives them in different places.

Data set [1] has as its system tetracycline-resistant P. aeruginosa isolate 1419. The experiment in a line: Checkerboard potentiation assay with tetracycline. The data set is classed as cell-based, Pseudomonas aeruginosa. The note with it: for EC50: Pseudomonas aeruginosa, 20 h, inhibitor alone, 25 μg mL^-1 highest concentration tested, read-out: EPI* (inhibitory concentration of efflux pump inhibitor alone); for TPI (inhibitory concentration of polyamine alone): 25 µg ml-1 highest tested. The protocol: (§1) Scaffold ranking library samples and individual polyamines were screened using checkerboard inhibitory assays to assess the potentiation of tetracycline and chloramphenicol. The test utilized a 96-well plate microtiter assay where the concentration of the scaffold or individual polyamine was decreased from 25 to 0.8 μg mL^-1 (average molarity of mixture samples 65 to 4 μM) along the rows, and the concentration of tetracycline or chloramphenicol was increased from 0.4 to 100 μM across the columns. […] However, with the known antibiotics, we report EC90 values in μM, which more accurately describes purified compounds. Plates were incubated statically at 37°C for 20 h, and the optical density (OD600) was determined using a Synergy 2 plate reader (BioTek). Potentiation modeling (detailed below) was performed to determine fold change in the 50 and 90% effective concentration of tetracycline or chloramphenicol.
Potentiation was quantified using a mathematical model developed by our group to assess the ability of library samples and individual compounds to effectively enhance the activity of tetracycline or chloramphenicol ([Hoel, 1987]). […] In this way, only libraries and compounds that potentiated tetracycline or chloramphenicol activity were pursued. The model is based on the following equation for modeling the percentage activity of a mixture of two agents with independent action ([Hoel, 1987]):
%Antibiotic & Comp(X1,X2)=%Antibiotic(X1)+%Comp(X2)−%Antibiotic(X1)⋅%Comp(X2)
Here, x1 and x2 are the concentrations of antibiotic (tetracycline or chloramphenicol) and library/compound (Comp) tested, respectively. This equation can be rearranged to model the effective percent activity (EC) of the antibiotic alone, after accounting for compound activity:
Eff%Antibiotic(X1)=%Antibiotic & Compound(X1,X2)−%Compound(X2)/1−%Compound(X2)
Thus, the model-adjusted checkerboards show the antibiotic activity post-potentiation, and from that one can determine the true change in Mic.

Another data set deals with MRSA (USA300). The experiment in a line: Potentiation of chloramphenicol, MRSA USA300 and norA mutant. Type of data set: cell-based, S. aureus. The protocol: as §1
(§2) Potentiation was quantified using a mathematical model developed by our group to assess the ability of library samples and individual compounds to effectively enhance the activity of tetracycline or chloramphenicol ([Hoel, 1987]). […] In this way, only libraries and compounds that potentiated tetracycline or chloramphenicol activity were pursued. […]

A short description of another data set: MTT cytotoxicity assay. Type of data set: cell-based. The note with it: human, 25 μg mL^-1, 48 h, read-out: percent recovery (cell viability). The protocol: To assess toxicity of polyamine compounds we used HepG2 human liver carcinoma cells and Hek293T human embryonic kidney epithelial cells. The viability of cell lines was determined using a 3-(4,5-dimethylthiazol-2-yl)-2,5-diphenyltetrazolium bromide (MTT) molecular probe as previously described by our group ([Fleeman et al., 2015]). Briefly, 247, 266, 271 (Hek293T), or 250, 271, 314 (HepG2), alongside control efflux pump inhibitor PaβN, were diluted in 10% DMF from 25 μg mL^-1 to 3 μg mL^-1 using twofold dilutions, before being added to cells in DMEM with 10% FBS and 1% penicillin/streptomycin. Cells were then incubated for 48 h at 37°C with 5% CO2. Following this, viability was assessed by the addition of MTT and measuring the OD570 in a Biotek plate reader. Percent recovery was determined compared to no drug controls.

Data set [2] relates to P. aeruginosa proficient (1419) and deficient (1418) strain. The experiment in a line: Aztreonam combination testing in efflux proficient and deficient strains. The settings on record: strain 1419 (efflux proficient); polyamine 12.5 μg mL^-1, ½ X MIC aztreonam. Type of data set: cell-based. The protocol:
FIGURE 6 Confirming efflux pump inhibition by polyamines using efflux deficient strains. (A) A P. aeruginosa proficient (1419) and deficient (1418) strain were subjected to combination testing of the polyamines at 12.5 μg mL^-1 and ½ X MIC of aztreonam. Fold potentiation was calculated by dividing the CFU mL^-1 for aztreonam only by the CFU mL^-1 of the combined treatment groups. (B) Lead polyamine 247 was assessed for its ability to potentiate the activity of chloramphenicol toward S. aureus strain United States 300 and its norA mutant. Shown is the potentiated chloramphenicol EC90 calculated as described in A. Error bars are shown ± SEM.

Another data set has as its system P. aeruginosa (1419). Kind of data set: Checkerboard potentiation assay with chloramphenicol. The data set is classed as cell-based. The note with it: increasing polyamine concentration. The protocol:
as §1, §2

Another data set concerns A. baumannii (1643). The experiment in a line: Potentiation of levofloxacin. The note with it: increasing polyamine concentration. Type of data set: cell-based.
Setting [3] is: 25 µg ml-1 TPI, EC50 tetracycline no TPI / with TPI.
[4] abbreviates: 25 µg ml-1 TPI, EC90 tetracycline no TPI / with TPI.
Where [5] appears, read: Hek293T human embryonic kidney epithelial cells, vs solvent only controls.
[6] abbreviates: EC50 tetracycline without EPI / with EPI.
[7] abbreviates: EC90 tetracycline without EPI / with EPI.
The mark [8] stands for this setting: HepG2 human liver carcinoma cells.

As to `CNCCCC[C@@H](CN)NC[C@H](Cc1ccccc1)NCCc1ccccc1` [compound 247], in data set [1] (setting [3]), the “FP* (fold potentiation of tetracycline EC50)” value came to 5 fold. Also, the “FP# (fold potentiation of tetracycline EC90)” value in data set [1] (setting [4]) is on record as 7.5 fold. In addition, in data set [1], the EC50 is greater than 25 µg/mL and the “TPI (inhibitory concentration of polyamine alone)” value was greater than 25 µg/mL. The potentiation of chloramphenicol entry in the data set with MRSA (USA300) (norA knockout) is on record as “little potentiation”. The potentiation of chloramphenicol entry in the data set on MRSA (USA300) (wild-type USA300) is listed as “marked potentiation of antibiotic activity in a dose responsive manner; also recorded: strongly potentiate chloramphenicol activity”. The recovery at 48 h, 25 μg mL^-1 in “MTT cytotoxicity assay” (setting [5]) was determined as 84%.
On to `NCC[C@@H](CN)NC[C@H](Cc1ccccc1)NCCc1ccccc1` [compound 250], for which the “FP* (fold potentiation of tetracycline EC50)” value in data set [1] (setting [3]) amounted to 7 fold; in data set [1] (setting [6]) it was 7.0 fold. Further, the “FP# (fold potentiation of tetracycline EC90)” value in data set [1] (setting [4]) and in data set [1] (setting [7]) was 7.8 fold each time. Besides, the EC50 in data set [1] was greater than 25 µg/mL. Moreover, the “TPI (inhibitory concentration of polyamine alone)” value in data set [1] was greater than 25 µg/mL. Besides, in data set [2], the potentiation of aztreonam entry is listed as “best potentiators of aztreonam”. In “MTT cytotoxicity assay” (setting [8]), the recovery at 48 h, 25 μg mL^-1 came out at 80%.
Regarding `CNCCCC[C@H](CN)NC[C@H](Cc1ccccc1)NCCc1ccccc1` [compound 266], the “FP* (fold potentiation of tetracycline EC50)” value in data set [1] (setting [3]) and in data set [1] (setting [6]) was 6.8 fold each time. For the same compound, the “FP# (fold potentiation of tetracycline EC90)” value in data set [1] (setting [4]) and in data set [1] (setting [7]) was 5.8 fold throughout. Moreover, the EC50 in data set [1] is greater than 25 µg/mL. Further, in data set [1], the “TPI (inhibitory concentration of polyamine alone)” value is greater than 25 µg/mL. Besides, in the data set on P. aeruginosa (1419), the “potentiation of chloramphenicol EC90” value was “highest potentiation values”. In the data set “MTT cytotoxicity assay” (setting [5]), the recovery at 48 h, 25 μg mL^-1 worked out at 72%.
For `NCCC[C@H](CN)NC[C@H](Cc1ccccc1)NCCc1ccccc1` [compound 271], the “FP* (fold potentiation of tetracycline EC50)” value in data set [1] (setting [3]) and in data set [1] (setting [6]) was 8.2 fold each time. Besides, the “FP# (fold potentiation of tetracycline EC90)” value in data set [1] (setting [4]) and in data set [1] (setting [7]) was 8.5 fold throughout. Also, in data set [1], the EC50 was greater than 25 µg/mL. Further, in data set [1], the “TPI (inhibitory concentration of polyamine alone)” value is greater than 25 µg/mL. The potentiation of levofloxacin entry in the data set with A. baumannii (1643) is on record as “dose response curve of antibiotic potentiation”. Also, the potentiation of aztreonam entry in data set [2] is “best potentiators of aztreonam”. Besides, the recovery at 48 h, 25 μg mL^-1 in “MTT cytotoxicity assay” (setting [5]) was 75%; in “MTT cytotoxicity assay” (setting [8]), 74%.

Source of the values: PMC6010545, “Identification of a Novel Polyamine Scaffold With Potent Efflux Pump Inhibition Activity Toward Multi-Drug Resistant Bacterial Pathogens” (Frontiers in Microbiology, 2018).
